Laboratory results published in PubChem BioAssay AID330 (DTP/NCI, 2004).
Where “and” joins values, the source holds several entries; their conditions need not be identical. Identical values can stand only once. Toxic doses and inconclusive results are not listed.

System: P388 leukemia ip, CD2F1 mice, survival T/C
Assay: NCI In Vivo Anticancer Drug Screen. Data for tumor model P388 Leukemia (intraperitoneal) in CD2F1 (CDF1) mice
Settings: endpoint: median survival time, higher = longer survival
Procedure, shortened: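 Mice carrying the transplanted tumor received test compound or vehicle. Survival was recorded in each group, and the value is the treated-group measurement divided by that of the vehicle-treated control group.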

[1] = dose: 50.0 mg/kg/injection, schedule: Q01DX009 (ip), vehicle: Klucel (hydroxypropylcellulose) (HPC)
[2] = dose: 6.25 mg/kg/injection, schedule: Q01DX005 (ip), vehicle: Klucel (hydroxypropylcellulose) (HPC)
[3] = dose: 12.5 mg/kg/injection, schedule: Q01DX005 (ip), vehicle: Klucel (hydroxypropylcellulose) (HPC)
[4] = dose: 7.5 mg/kg/injection, schedule: Q01DX005 (ip), vehicle: Klucel (hydroxypropylcellulose) (HPC)
[5] = dose: 120.0 mg/kg/injection, schedule: Q01DX005 (ip), vehicle: saline with Tween-80
[6] = dose: 240.0 mg/kg/injection, schedule: Q01DX005 (ip), vehicle: saline with Tween-80
[7] = dose: 50.0 mg/kg/injection, schedule: Q01DX005 (ip), vehicle: saline with Tween-80
[8] = dose: 100.0 mg/kg/injection, schedule: Q01DX005 (ip), vehicle: saline with Tween-80
[9] = dose: 200.0 mg/kg/injection, schedule: Q01DX005 (ip), vehicle: saline with Tween-80

In the case of Nc1nc(N)c(-c2ccc(Cl)c(Cl)c2)c(CP(Cl)(Cl)(Cl)Br)n1, the T/C (dose: 6.25 mg/kg/injection, schedule: Q01DX009 (ip), vehicle: Klucel (hydroxypropylcellulose) (HPC)) is reported as 96 % of control, the T/C (dose: 12.5 mg/kg/injection, schedule: Q01DX009 (ip), vehicle: Klucel (hydroxypropylcellulose) (HPC)) is reported as 104 % of control and the T/C (dose: 25.0 mg/kg/injection, schedule: Q01DX009 (ip), vehicle: Klucel (hydroxypropylcellulose) (HPC)) is reported as 109 % of control. For the same compound, the T/C [1] was 114 % of control.

In the case of O=C([O-])c1ccccc1[O-].[Cu+2].c1ccc(-c2ccccn2)nc1, the T/C [2] is reported as 104 % of control and the T/C [3] is reported as 113 % of control.

In the case of Cc1cnc(N/N=C/c2c(CO)cnc(C)c2O)s1, the T/C [4] is reported as 99 % of control, the T/C (dose: 15.0 mg/kg/injection, schedule: Q01DX005 (ip), vehicle: Klucel (hydroxypropylcellulose) (HPC)) is reported as 94 % of control and the T/C (dose: 30.0 mg/kg/injection, schedule: Q01DX005 (ip), vehicle: Klucel (hydroxypropylcellulose) (HPC)) is reported as 86 % of control. For the same compound, the T/C [5] was 93 % of control and the T/C [6] was 112 % of control.

COc1cccc2c1C(=O)c1c(O)c3c(c(O)c1C2=O)C[C@@](O)(C(=O)CO)CC3OC1CC(O)C(O)C(C)O1 (stereo partly drawn) was tested, and the T/C (dose: 6.25 mg/kg/injection, schedule: Q04DX003 (ip), vehicle: saline) was 122 % of control, the T/C (dose: 12.5 mg/kg/injection, schedule: Q04DX003 (ip), vehicle: saline) was 165 % of control and the T/C (dose: 25.0 mg/kg/injection, schedule: Q04DX003 (ip), vehicle: saline) was 183 % of control. The T/C (dose: 50.0 mg/kg/injection, schedule: Q04DX003 (ip), vehicle: saline) was 209 % of control.

For COC1=CC(C(=O)O)C=C(OC)C1, the T/C [7] was 102 % of control, the T/C [8] was 104 % of control and the T/C [9] was 89 % of control.

In the case of C/C(=N/NC(=O)O[C@@H]1C[C@H](C)CC[C@H]1C(C)C)c1cc[c]([Sn]([CH3])([Cl])[c]2ccccc2)cc1 (stereo partly drawn), the T/C (dose: 0.93 mg/kg/injection, schedule: Q01DX005 (ip), vehicle: Klucel (hydroxypropylcellulose) (HPC)) is reported as 108 % of control, the T/C (dose: 1.87 mg/kg/injection, schedule: Q01DX005 (ip), vehicle: Klucel (hydroxypropylcellulose) (HPC)) is reported as 100 % of control and the T/C (dose: 3.75 mg/kg/injection, schedule: Q01DX005 (ip), vehicle: Klucel (hydroxypropylcellulose) (HPC)) is reported as 100 % of control and 109 % of control. For the same compound, the T/C [4] was 107 % of control.

For COc1cc(C2OCC3C(c4cc(OC)c(OC)c(OC)c4)OCC23)cc(OC)c1OC (stereo not drawn), the T/C (dose: 50.0 mg/kg/injection, schedule: Q01DX005 (ip), vehicle: Klucel (hydroxypropylcellulose) (HPC)) was 102 % of control, the T/C (dose: 100.0 mg/kg/injection, schedule: Q01DX005 (ip), vehicle: Klucel (hydroxypropylcellulose) (HPC)) was 100 % of control and the T/C (dose: 200.0 mg/kg/injection, schedule: Q01DX005 (ip), vehicle: Klucel (hydroxypropylcellulose) (HPC)) was 102 % of control.

For Cc1ccnc(NS(=O)(=O)c2ccc(N=Cc3c4ccccc4nc4cc(Cl)ccc34)cc2)n1, the T/C (dose: 60.0 mg/kg/injection, schedule: Q01DX005 (ip), vehicle: saline with Tween-80) was 96 % of control, the T/C [5] was 93 % of control and the T/C [6] was 96 % of control.

In the case of Cc1cccc(-c2nc(=S)nc(N)s2)c1, the T/C (dose: 100.0 mg/kg/injection, schedule: Q01DX001 (ip), vehicle: saline with Tween-80) is reported as 95 % of control and the T/C (dose: 200.0 mg/kg/injection, schedule: Q01DX001 (ip), vehicle: saline with Tween-80) is reported as 93 % of control.

With CC1OC(O[C@H]2C[C@](O)(C(C)O)Cc3c(O)c4c(c(O)c32)C(=O)c2c(O)cccc2C4=O)CC(NC=O)C1O (stereo partly drawn) the T/C (dose: 0.16 mg/kg/injection, schedule: Q04DX003 (ip), vehicle: water) was 118 % of control, the T/C (dose: 0.32 mg/kg/injection, schedule: Q04DX003 (ip), vehicle: water) was 113 % of control and the T/C (dose: 0.33 mg/kg/injection, schedule: Q04DX003 (ip), vehicle: water) was 103 % of control. The T/C (dose: 0.65 mg/kg/injection, schedule: Q04DX003 (ip), vehicle: water) was 111 % of control, the T/C (dose: 1.29 mg/kg/injection, schedule: Q04DX003 (ip), vehicle: water) was 115 % of control and the T/C (dose: 2.58 mg/kg/injection, schedule: Q04DX003 (ip), vehicle: water) was 123 % of control.

CC(C)(C)OSc1ccccc1 was tested, and the T/C (dose: 100.0 mg/kg/injection, schedule: Q04DX002 (ip), vehicle: Klucel (hydroxypropylcellulose) (HPC)) was 101 % of control, the T/C (dose: 200.0 mg/kg/injection, schedule: Q04DX002 (ip), vehicle: Klucel (hydroxypropylcellulose) (HPC)) was 97 % of control and the T/C (dose: 400.0 mg/kg/injection, schedule: Q04DX002 (ip), vehicle: Klucel (hydroxypropylcellulose) (HPC)) was 102 % of control.

In the case of CC(C)(C)OC(=O)NC(N)=NCCCC(NC(=O)OC(C)(C)C)C(=O)O (stereo not drawn), the T/C [7] is reported as 100 % of control, the T/C [8] is reported as 103 % of control and the T/C [9] is reported as 102 % of control.

In the case of Cc1cc(OC(=O)Nc2ccc(Cl)c([N+](=O)[O-])c2)c(Cl)cc1Br, the T/C (dose: 50.0 mg/kg/injection, schedule: Q01DX009 (ip), vehicle: saline + alcohol) is reported as 100 % of control, the T/C (dose: 100.0 mg/kg/injection, schedule: Q01DX009 (ip), vehicle: saline + alcohol) is reported as 105 % of control and the T/C (dose: 200.0 mg/kg/injection, schedule: Q01DX009 (ip), vehicle: saline + alcohol) is reported as 88 % of control.

For COc1cc2c(cc1OC)C1CC(=O)C(Cc3ccccc3)CN1CC2 (stereo not drawn), the T/C [1] was 101 % of control, the T/C (dose: 100.0 mg/kg/injection, schedule: Q01DX009 (ip), vehicle: Klucel (hydroxypropylcellulose) (HPC)) was 87 % of control and 95 % of control and the T/C (dose: 200.0 mg/kg/injection, schedule: Q01DX009 (ip), vehicle: Klucel (hydroxypropylcellulose) (HPC)) was 95 % of control and 104 % of control.

With CCOC(=O)c1cc(-c2ccc(Cl)cc2)nc2c(Cl)cc(Cl)cc12 the T/C (dose: 100.0 mg/kg/injection, schedule: Q01DX009 (ip), vehicle: saline with Tween-80) was 93 % of control, the T/C (dose: 200.0 mg/kg/injection, schedule: Q01DX009 (ip), vehicle: saline with Tween-80) was 94 % of control and the T/C (dose: 400.0 mg/kg/injection, schedule: Q01DX009 (ip), vehicle: saline with Tween-80) was 88 % of control.

In the case of C=C1C(=O)C2=CC1CCC(=O)C1(C)CCC(OC(C)=O)C(C)(C)C1CC2O (stereo not drawn), the T/C (dose: 7.5 mg/kg/injection, schedule: Q01DX009 (ip), vehicle: Klucel (hydroxypropylcellulose) (HPC)) is reported as 105 % of control and 107 % of control, the T/C (dose: 15.0 mg/kg/injection, schedule: Q01DX009 (ip), vehicle: Klucel (hydroxypropylcellulose) (HPC)) is reported as 110 % of control and 120 % of control and 123 % of control and the T/C (dose: 30.0 mg/kg/injection, schedule: Q01DX009 (ip), vehicle: Klucel (hydroxypropylcellulose) (HPC)) is reported as 102 % of control and 113 % of control and 114 % of control. For the same compound, the T/C (dose: 60.0 mg/kg/injection, schedule: Q01DX009 (ip), vehicle: Klucel (hydroxypropylcellulose) (HPC)) was 111 % of control and 124 % of control.

For C[CH2][Sn][Cl], the T/C (dose: 6.25 mg/kg/injection, schedule: Q01DX009 (ip), vehicle: saline) was 98 % of control, the T/C (dose: 12.5 mg/kg/injection, schedule: Q01DX009 (ip), vehicle: saline) was 98 % of control and the T/C (dose: 25.0 mg/kg/injection, schedule: Q01DX009 (ip), vehicle: saline) was 91 % of control.

In the case of NC(=S)NN=C(C1CC1)C1CC1, the T/C [2] is reported as 98 % of control and the T/C [3] is reported as 97 % of control.

N#CC(OC(=O)c1ccccc1)C(OC(=O)c1ccccc1)C(OC(=O)c1ccccc1)C(COC(=O)c1ccccc1)OC(=O)c1ccccc1 (stereo not drawn) was tested, and the T/C (dose: 6.25 mg/kg/injection, schedule: Q01DX005 (ip), vehicle: saline with Tween-80) was 97 % of control, the T/C (dose: 12.5 mg/kg/injection, schedule: Q01DX005 (ip), vehicle: saline with Tween-80) was 95 % of control and the T/C (dose: 25.0 mg/kg/injection, schedule: Q01DX005 (ip), vehicle: saline with Tween-80) was 86 % of control.

With CCC[CH2][Sn]([CH2]CCC)[CH2]CCC.CCC[CH2][Sn]([CH2]CCC)[CH2]CCC the T/C (dose: 1.56 mg/kg/injection, schedule: Q04DX002 (ip), vehicle: saline with Tween-80) was 103 % of control, the T/C (dose: 3.12 mg/kg/injection, schedule: Q04DX002 (ip), vehicle: saline with Tween-80) was 117 % of control and the T/C (dose: 6.25 mg/kg/injection, schedule: Q04DX002 (ip), vehicle: saline with Tween-80) was 103 % of control and 109 % of control. The T/C (dose: 100.0 mg/kg/injection, schedule: Q04DX003 (ip), vehicle: Klucel (hydroxypropylcellulose) (HPC)) was 118 % of control.

For CCOC(=O)C1=CNN=CC12C(=O)NC(=Nc1ccccc1)N2c1ccccc1 (stereo not drawn), the T/C (dose: 100.0 mg/kg/injection, schedule: Q04DX002 (ip), vehicle: saline with Tween-80) was 93 % of control, the T/C (dose: 200.0 mg/kg/injection, schedule: Q04DX002 (ip), vehicle: saline with Tween-80) was 104 % of control and the T/C (dose: 400.0 mg/kg/injection, schedule: Q04DX002 (ip), vehicle: saline with Tween-80) was 95 % of control.

In the case of COc1ccc(CNNc2ccc(NC(C)=O)cc2N)cc1, the T/C (dose: 25.0 mg/kg/injection, schedule: Q04DX003 (ip), vehicle: saline with Tween-80) is reported as 90 % of control, the T/C (dose: 50.0 mg/kg/injection, schedule: Q04DX003 (ip), vehicle: saline with Tween-80) is reported as 88 % of control and the T/C (dose: 100.0 mg/kg/injection, schedule: Q04DX003 (ip), vehicle: saline with Tween-80) is reported as 105 % of control.
